Test results: patent US7504481B2, “TRP channel family member, LTRPC3 polypeptides” (Bristol-Meyers Squibb Company, priority 2001, dated 2009)

Experiments:
HEK 293 cells = assay: Depletion of intracellular Ca2+ stores in LTRPC3-HA- and vector-transfected HEK 293 cells (FLIPR); assay type: cell-based; conditions: no external Ca^2+
LTRPC3 [1] = molecular target: T1, LTRPC3 (Homo sapiens, UniProt Q9HCF6, R1695Q); assay: FLIPR Fluo-4 Ca2+ entry in LTRPC3-transfected HEK 293 cells; assay type: cell-based; conditions: for effect on LTRPC3 mediated Ca^2+ currents / entry (in words): 100 μM for 10 min, 1 mM Ca^2+ solution, then 10 mM Ca^2+; for block of LTRPC3 Ca^2+ currents: pre-treatment with 100 μM, 1 mM Ca^2+ present, stimulated by adding 10 mM Ca^2+ (FIG. 19C)
T1 construct: the complete open reading frame of LTRPC3 with a C-terminal HA tag was transiently transfected into HEK 293 cells; expressed in transfected cells; host or cells: HEK 293 cells, transient transfection with pcDNA3.1/Hygro-LTRPC3-HA
T1 sequence (Q9HCF6 with tags, fused parts or gaps isoform Q9HCF6-2 R1670Q limits assumed): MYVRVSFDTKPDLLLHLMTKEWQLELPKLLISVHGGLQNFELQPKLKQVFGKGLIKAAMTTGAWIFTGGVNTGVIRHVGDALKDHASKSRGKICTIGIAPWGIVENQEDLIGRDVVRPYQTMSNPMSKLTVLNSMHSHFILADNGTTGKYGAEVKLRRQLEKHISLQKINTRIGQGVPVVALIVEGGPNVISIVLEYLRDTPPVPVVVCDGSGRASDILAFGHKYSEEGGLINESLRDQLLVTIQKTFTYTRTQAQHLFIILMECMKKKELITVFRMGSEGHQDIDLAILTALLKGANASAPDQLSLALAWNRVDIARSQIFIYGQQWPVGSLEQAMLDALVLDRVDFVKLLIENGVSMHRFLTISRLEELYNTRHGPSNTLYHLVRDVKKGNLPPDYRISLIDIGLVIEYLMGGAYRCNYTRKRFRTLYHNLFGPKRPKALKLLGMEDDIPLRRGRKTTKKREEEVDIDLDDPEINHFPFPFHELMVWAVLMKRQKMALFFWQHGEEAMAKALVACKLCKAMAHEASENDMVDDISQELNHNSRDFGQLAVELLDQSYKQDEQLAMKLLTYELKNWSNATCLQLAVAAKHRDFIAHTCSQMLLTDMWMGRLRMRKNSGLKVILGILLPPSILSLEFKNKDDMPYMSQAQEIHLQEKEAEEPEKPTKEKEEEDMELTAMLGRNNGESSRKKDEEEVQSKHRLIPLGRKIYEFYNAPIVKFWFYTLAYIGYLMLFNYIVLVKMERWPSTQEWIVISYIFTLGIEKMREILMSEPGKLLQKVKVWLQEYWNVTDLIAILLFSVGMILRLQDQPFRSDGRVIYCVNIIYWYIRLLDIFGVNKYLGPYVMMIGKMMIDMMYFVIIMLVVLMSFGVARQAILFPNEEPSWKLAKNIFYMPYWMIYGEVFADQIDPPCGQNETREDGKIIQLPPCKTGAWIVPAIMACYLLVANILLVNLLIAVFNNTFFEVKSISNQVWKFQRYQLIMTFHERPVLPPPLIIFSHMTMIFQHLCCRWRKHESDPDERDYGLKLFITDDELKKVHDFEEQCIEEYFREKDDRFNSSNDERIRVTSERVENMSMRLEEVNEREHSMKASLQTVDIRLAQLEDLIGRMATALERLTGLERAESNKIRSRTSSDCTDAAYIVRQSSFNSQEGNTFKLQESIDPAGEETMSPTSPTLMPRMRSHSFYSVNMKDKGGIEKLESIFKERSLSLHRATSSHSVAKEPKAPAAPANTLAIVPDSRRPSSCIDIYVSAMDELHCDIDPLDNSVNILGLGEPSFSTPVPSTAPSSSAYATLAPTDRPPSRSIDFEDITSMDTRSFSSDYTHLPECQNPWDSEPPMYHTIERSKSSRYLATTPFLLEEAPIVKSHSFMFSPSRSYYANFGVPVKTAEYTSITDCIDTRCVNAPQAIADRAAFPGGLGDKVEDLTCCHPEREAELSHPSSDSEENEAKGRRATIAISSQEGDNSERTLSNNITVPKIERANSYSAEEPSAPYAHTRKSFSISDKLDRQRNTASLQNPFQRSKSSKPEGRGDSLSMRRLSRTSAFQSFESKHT
Method: […] (A), or 50 μM carbachol (B) was first added to LTRPC3 expressing HEK 293 cells in the absence of external Ca^2+. After 9 minutes, 2 mM Ca^2+ solution was added to the cell medium at the indicated times.Currents for vector transfected HEK 293 cells, and LTRPC3 expressing HEK 293 cells are labeled accordingly. […] Cells loaded with Fluo-4 were incubated in 1 mM Ca^2+ solution and treated with 100 μM of La^3+ (“w/La^3+”), Gd^3+ (“w/Gd^3+”) or without blockers (“w/o blocker”) for 10 min prior to the addition of 10 mM Ca^2+ to the cell medium as indicated. Curves represent averages of three independent experiments, each involving at least 8 wells per condition. Physiometric methods were performed as described in Example 8 herein.
(§1) Panels A, C and E show results obtained for vector-transfected cells, while Panels B, D and F show results obtained for TRPM3-transfected cells. […] Cells loaded with Fluo-4 were incubated in 1 mM Ca^2+ solution and treated with 100 μM of Gd^3+ (red) or without blockers (black) for 10 min prior to the addition of 10 mM Ca^2+ to the bath solution as indicated. […] Cells loaded with Fluo-4 were incubated in a nominally Ca^2+-free media and treated without blockers (black) or with 100 μM of Gd^3+ (red) for 10 min prior to the addition of 2 μM TG (Panels C and D, first arrow) or 50 μM CCh (Panels E and F, first arrow), Ca^2+ entry was stimulated by the bath addition of […] (second arrow). Representative traces from one of three independent experiments are shown; each trace is the mean of 12 wells per condition. Physiometric methods were performed as described in Example 10 herein.
(§2) Moreover, physiometric studies have shown that LTRPC3 is a functional Ca^2+ permeable channel (see FIGS. 18 and 19, and Example 7). LTRPC3 function was assessed using a Fluorometric Imaging Plate Reader (FLIPR™) that measures real-time intracellular fluorescence changes. Cells transiently transfected with vector or LTRPC3-HA were loaded with the cytoplasmic Ca^2+ indicator Fluro-4 in a 1 mM Ca^2+ solution. […] The non-transfected cells were indistinguishable from the vector-transfected cells (data not shown). Therefore, LTRPC3 is a constitutively active channel capable of mediating Ca^2+ influx.
The lanthamides, gadolinium (Gd^3+) and lanthanum (La^3+), are noneselective Ca^2+-permeable channel blockers, often used as part of the characterization of overexpressed TRP channels. […] In the presence of 1 mM Ca^2+ in which endogenous SOCs is minimally activated (FIG. 18A), pre-treatment with 100 μM of La^3+and Gd^3+blocked LTRPC3 Ca^2+ currents, stimulated by adding 10 mM Ca^2+, by 67 and 39%, respectively.
Additional experiments were performed to further confirm the Ca^2+ store-depleted activation of LTRPC3 using Gd^3+. The effects of 100 μM Gd^3+ on Ca^2+ permeability were tested in vector- and LTRPC3-transfected cells. […] In contrast, 100 μM Gd^3+ inhibited Ca^2+ entry, induced by adding 10 mM Ca^2+, by 53% in LTRPC3-transfected cells (see FIG. 22B). Gd^3+ reduced fluorescence units in vector-transfected cells from 1470±140 to −58±8 and in LTRPC3-transfected cells from 6000±322 to 2080±199 (n=12). Fluorescence values were measured 150 seconds after adding 10 mM Ca^2+ and percent blockade was calculated as 1 minus FLTRPC3−FVector in the presence of Gd^3+ divided by FLTRPC3−FVector without blocker. The effects of Gd^3+ on LTRPC3-mediated Ca^2+ entry, induced by 10 mM Ca^2+, in the presence of thapsigargin or carbachol was also examined. Cells were incubated in nominally Ca^2+-free medium for thapsigargin and carbachol experiments. Gd^3+ inhibited Ca^2+ entry by 51% after depletion of intracellular stores with thapsigargin (see FIG. 22B). Gd^3+ reduced peak fluorescence after 10 mM Ca^2+ addition in vector-transfected cells from 26444±2410 to 1316±60 and in LTRPC3-transfected cells from 37676±2425 to 6783±250 (see FIGS. 22C and D, respectively; n=12). […]

[2] = tested on: endogenous Ca^2+ entry pathway in HEK 293 cells; assay: FLIPR Fluo-4 Ca2+ entry in vector-transfected HEK 293 cells (endogenous pathway); assay type: cell-based; conditions: 100 μM Gd^3+
Method: as §1, §2
To further address the mechanism of LTRPC3-mediated Ca^2+ entry, similar Ca^2+ addition experiments were performed on transfected cells incubated (˜30 min) in a nominally Ca^2+-free solution. Previous studies have shown that lowering extracellular Ca^2+ concentration below physiological levels can deplete intracellular Ca^2+ stores in many cell types including HEK 293 (EMBO J. 17, 4274-4282, (1998)). […]
Additional experiments were performed to further confirm the Ca^2+ store-depleted activation of LTRPC3 using Gd^3+. […] Gd^3+ reduced fluorescence units in vector-transfected cells from 1470±140 to −58±8 and in LTRPC3-transfected cells from 6000±322 to 2080±199 (n=12). Fluorescence values were measured 150 seconds after adding 10 mM Ca^2+ and percent blockade was calculated as 1 minus FLTRPC3−FVector in the presence of Gd^3+ divided by FLTRPC3−FVector without blocker. […] Gd^3+ reduced peak fluorescence after 10 mM Ca^2+ addition in vector-transfected cells from 26444±2410 to 1316±60 and in LTRPC3-transfected cells from 37676±2425 to 6783±250 (see FIGS. 22C and D, respectively; n=12). […] Gd^3+ reduced peak Ca^2+ fluorescence in vector-transfected cells from 9327±466 to 453±15 and in LTRPC3-transfected cells from 14747±988 to 1975±79 (see FIGS. 22E and F, respectively; n=12).

LTRPC3 [3] = molecular target: T1, LTRPC3; assay: FLIPR Fluo-4 Ca2+ entry in LTRPC3-transfected HEK 293 cells; assay type: cell-based; conditions: 100 μM Gd^3+, nominally Ca^2+-free medium
[4] = picogram quantities to the female vomeronasal organ; female recipients; cited from earlier work
[5] = tested on: nigral dopaminergic neurons; conditions: gel foam implants in the striatum; cited from earlier work

C[N+](C)(C)CCOC(N)=O [CCh, Carbachol]
intracellular Ca^2+ response (in words) (HEK 293 cells; 50 μM CCh, LTRPC3- and vector-transfected cells): transient and rapid intracellular Ca^2+ increase

[Gd+3] [Gd^3+, gadolinium]
fluorescence units in LTRPC3-transfected cells in the presence of Gd^3+ (LTRPC3 [1]; 100 μM Gd^3+, 1 mM Ca^2+, 150 seconds after adding 10 mM Ca^2+, n=12): 2080±199 fluorescence units | inhibition of Ca^2+ entry in LTRPC3-transfected cells (percent blockade) (LTRPC3 [1]; 100 μM Gd^3+, cells in 1 mM Ca^2+, entry induced by adding 10 mM Ca^2+, 150 seconds, vector signal subtracted): 53% | effect on LTRPC3 mediated Ca^2+ currents / entry (in words) (LTRPC3 [1]): partially inhibited | block of LTRPC3 Ca^2+ currents (LTRPC3 [1]): 39% | fluorescence units in vector-transfected cells in the presence of Gd^3+ ([2]; 1 mM Ca^2+, 150 seconds after adding 10 mM Ca^2+, n=12): −58±8 fluorescence units | effect on minimal Ca^2+ influx in vector-transfected cells (in words) ([2]; 1 mM Ca^2+, addition of 10 mM Ca^2+): strongly inhibited | peak Ca^2+ fluorescence in vector-transfected cells, carbachol ([2]; store depletion with carbachol, nominally Ca^2+-free medium, n=12): 453±15 | peak fluorescence after 10 mM Ca^2+ addition in vector-transfected cells, thapsigargin ([2]; store depletion with thapsigargin, nominally Ca^2+-free medium, n=12): 1316±60 | inhibition of Ca^2+ entry after depletion of intracellular stores with carbachol (LTRPC3 [3]; 10 mM Ca^2+ addition): 72% | inhibition of Ca^2+ entry after depletion of intracellular stores with thapsigargin (LTRPC3 [3]; 10 mM Ca^2+ addition): 51% | peak Ca^2+ fluorescence in LTRPC3-transfected cells, carbachol (LTRPC3 [3]; store depletion with carbachol, n=12): 1975±79 | peak fluorescence after 10 mM Ca^2+ addition in LTRPC3-transfected cells, thapsigargin (LTRPC3 [3]; store depletion with thapsigargin, n=12): 6783±250

[La+3] [La^3+, lanthanum]
effect on LTRPC3 mediated Ca^2+ currents / entry (in words) (LTRPC3 [1]): inhibited | block of LTRPC3 Ca^2+ currents (LTRPC3 [1]): 67%

C[C@@]12C=CC[C@H]1[C@@H]1CCC3=CC(=O)CC[C@]3(C)[C@H]1CC2 [androstadienone]
nervousness, tension and other negative feelings [4]: significant reduction

C/C=C(/C)C(=O)O[C@H]1C(C)=C2[C@H]([C@@H]1OC(=O)CCCCCCC)[C@@](C)(OC(C)=O)C[C@H](OC(=O)CCC)[C@@]1(O)[C@H]2OC(=O)[C@@]1(C)O [thapsigargin]
depletion of Ca^2+ stores (in words) (HEK 293 cells; 2 μM thapsigargin, LTRPC3-HA- and vector-transfected cells): equivalently depleted

FGF-2: FGF-2 (basic FGF), fibroblast growth factor
protection of nigral dopaminergic neurons from the toxicity associated with MPTP exposure [5]: near complete protection
